Where two headings read alike, the source gives them in different places.
Columns and labels:
Hy-line laying hens = test: Monacolin K residue remained in eggs (HPLC); type: in vivo, hen; conditions: hens fed basal diet containing 0.056% monacolin K (highest red mold rice content) for 42 days, FIG. 3
Method: The method for determining whether there is any monacolin K residue remained comprised the following steps. 20 mL acetonitrile-water (9:1, v/v) is added into 10 grams of egg samples (including yolk samples and albumen samples which are separated from eggs laid by hens fed with red mold rice of the highest content for 42 days), vibrated for 60 min through ultrasonic vibration, stirred and mixed for 15 min. Then, after the solid is separated off through a Whatman No. 1 filter paper, equal volume of acetonitrile is added into a 4 mL egg sample, filtered via a filter membrane of 0.45 μm pore size, and analyzed thgrough HPLC. The operating conditions for performing HPLC analysis were described as above.

hens = conditions: cited from earlier work

SMILES: CC[C@H](C)C(=O)O[C@H]1C[C@@H](C)C=C2C=C[C@H](C)[C@H](CC[C@@H]3C[C@@H](O)CC(=O)O3)[C@H]21 [lovastatin]
- Monacolin K residue in eggs (yolk and egg white) (Hy-line laying hens): no monacolin K residue
- Lowering of egg cholesterol concentration (hens; 0.0005% lovastatin, hens of 30 weeks old, feed for 12 weeks (Mori et al.)): 7.5%
- Lowering of egg cholesterol concentration (hens; 0.0015% lovastatin, hens of 30 weeks old, feed for 12 weeks (Mori et al.)): 12.7%
- Decrease in egg cholesterol concentration (hens; 0.0035% lovastatin, hens of 69 weeks old, feed for 5 weeks (Luhman et al.)): no significant decrease
- Lowering of egg cholesterol concentration (hens; 0.03% lovastatin, hens of 18 weeks old, feed for 5 weeks (Elkin and Yan)): 4%
- Lowering of egg cholesterol concentration (hens; 0.06% lovastatin, hens of 18 weeks old, feed for 5 weeks (Elkin and Yan)): 7%
- Decrease of egg cholesterol (hens; 0.2407% lovastatin in feed for 9 days (Elkin and Rogler)): 13%
